The values below are quoted from earlier work in PMC3532212 (PLoS ONE, 2012).

One data set concerns disease-relevant model. Further details: method as in PMID 15642767. Particulars: cited from earlier work.
The test system of a further data set is anesthetized guinea pigs. On the set-up: method as in PMID 15642767. Particulars: i.v. bolus, highest tested dose 0.03 mg/kg/d; cited from earlier work.
The next data set concerns Wistar rats. On the set-up: method as in PMID 17006328. To be noted: cited from earlier work.
The test system of another data set is mice. Further details: method as in PMID 14747617. To be noted: wild type mice; cited from earlier work.
The subject of the next data set is S1P1 receptor. Further details: method as in PMID 15975516. To be noted: cited from earlier work.
In data set [1] the test system is FTY720-induced bradycardia. Further details: method as in PMID 20097776. Particulars: in vivo; cited from earlier work.

Turning to `NC(CO)(CO)CCc1ccc(Sc2cccc(OCc3ccccc3)c2)cc1Cl` [KRP-203], in the data set with disease-relevant model, the “efficacious dose in a disease-relevant model” value was 0.1 to 1.0 mg/kg/day. The “effect on heart rate” value with anesthetized guinea pigs and with Wistar rats (0.03 mg/kg) was “no effect on heart rate” throughout. For the same compound, in the data set with Wistar rats (0.1 and 0.3 mg/kg), the “acute bradycardia, heart rate below baseline” value is ~150 beats/min.

In the case of `CCCCCCCCCCCCC/C=C/[C@@H](O)[C@@H](N)COP(=O)(O)O` [S1P, Sphingosine-1-phospate], the “effect on heart rate” value with mice was “reductions in heart rate”.

Take `FC(F)(F)c1cccc(-c2noc(-c3cc(-c4ccccc4)c(C(F)(F)F)s3)n2)c1` [SEW2871]: in the data set with S1P1 receptor, the S1P1 receptor internalization result was “elicit S1P1 receptor internalization”.

On to `CC(C)(C)C(=O)C(=Nc1ccc(Cl)cc1)NNc1ccc(Cl)cc1` [TY-52156], for which, in data set [1], the “effect on FTY720-induced bradycardia” value is given as “partially inhibit”.
